Source: US20230277534A1 (Plexxikon Inc., priority 2011, published 2023)

Tests used:
B-Raf V600E = B-Raf V600E (Homo sapiens (Human), UniProt P15056, V600E); experiment: B-Raf V600E kinase biochemical activity assay (AlphaScreen, biotin-MEK1 substrate); settings: 100 μM ATP
Experimental: Assays for biochemical and cell based activity are known in the art, for example, as described in PCT publication WO 2007/002433, the disclosure of which is hereby incorporated by reference as it relates to such assays. For example, the biochemical activity IC50 values are determined with respect to inhibition of B-Raf V600E kinase activity or p-Erk kinase activity, where inhibition of phosphorylation of a peptide substrate is measured as a function of compound concentration. Compounds to be tested are diluted in dimethyl sulfoxide to a concentration of 0.1 mM. These are serially diluted 15 μL into 30 μL of dimethyl sulfoxide seven times in 96 well plates for a total of 8 dilution points, and for each dilution point 1 μL is added to a well of an assay plate. Plates are prepared such that each well in a 384 well plate contains 1 μL of compound in 10 μL volume with 0.1 ng Raf enzyme (i.e. any of B-Raf, c-Raf-1 or B-Raf V600E, Upstate Biotechnology or prepared by methods known to one of skill in the art), 50 mM HEPES, pH 7.0, 50 mM NaCl, 2 mM MgCl2, 1 mM MnCl2, 0.01% Tween-20, 1 mM DTT, and 100 nM biotin-MEK1 as substrate. The reaction is started with addition of 10 μL of 200 μM ATP (i.e. final 100 μM ATP). After incubation of the kinase reaction for 45 minutes at room temperature, 5 μL/well of Stop Solution is added (25 mM Hepes pH 7.5, 100 mM EDTA, 0.01% BSA with donor beads (Streptavidin coated beads, Perkin Elmer), acceptor beads (Protein A coated, Perkin Elmer), and anti phosphor MEK1/2 antibody (CellSignal), each at final concentration 10 μg/mL). The plates are incubated for 3 hours at room temperature and read on Envision reader (Perkin Elmer). Phosphorylation of Mek1 results in binding of the anti-phosphor-MEK1/2antibody and association of the donor and acceptor beads such that signal correlates with kinase activity. The signal vs. compound concentration is used to determine the IC50.

[1] = tested on: COLO205 colon adenocarcinoma cells (B-Raf V600E mutation); experiment: COLO205 cell growth inhibition (ATPlite); format: cell-based; settings: Homo sapiens, COLO 205, 72 h, 3 days
Experimental: Compounds are assessed in a variety of cell based assays.
On day 1, cells are counted, then centrifuged in a conical tube for 5 minutes at 1000 rpm.
On day 2, compound at a maximum concentration of 5 mM is serially diluted 1:3 (e.g. 10 μL with 30 μL dimethyl sulfoxide) for a total of 8 point titration with DMSO as a control. A 1 μL aliquot of each dilution point and control is added to 249 μL growth media and 50 μL is added to a well containing cells, providing 10 μM compound at the maximum concentration point. The cells are incubated for 3 days at 37° C. in 5% CO2.
ATPlite is added 25 μL to each well, shake for 2 minutes, and the cells are incubated at room temperature for 10 minutes, then luminescence is read on Safire reader. The measured luminescence correlates directly with cell number, such that the reading as a function of compound concentration is used to determine the IC50 value.

B-Raf V600E, sequence (P15056 whole entry V600E): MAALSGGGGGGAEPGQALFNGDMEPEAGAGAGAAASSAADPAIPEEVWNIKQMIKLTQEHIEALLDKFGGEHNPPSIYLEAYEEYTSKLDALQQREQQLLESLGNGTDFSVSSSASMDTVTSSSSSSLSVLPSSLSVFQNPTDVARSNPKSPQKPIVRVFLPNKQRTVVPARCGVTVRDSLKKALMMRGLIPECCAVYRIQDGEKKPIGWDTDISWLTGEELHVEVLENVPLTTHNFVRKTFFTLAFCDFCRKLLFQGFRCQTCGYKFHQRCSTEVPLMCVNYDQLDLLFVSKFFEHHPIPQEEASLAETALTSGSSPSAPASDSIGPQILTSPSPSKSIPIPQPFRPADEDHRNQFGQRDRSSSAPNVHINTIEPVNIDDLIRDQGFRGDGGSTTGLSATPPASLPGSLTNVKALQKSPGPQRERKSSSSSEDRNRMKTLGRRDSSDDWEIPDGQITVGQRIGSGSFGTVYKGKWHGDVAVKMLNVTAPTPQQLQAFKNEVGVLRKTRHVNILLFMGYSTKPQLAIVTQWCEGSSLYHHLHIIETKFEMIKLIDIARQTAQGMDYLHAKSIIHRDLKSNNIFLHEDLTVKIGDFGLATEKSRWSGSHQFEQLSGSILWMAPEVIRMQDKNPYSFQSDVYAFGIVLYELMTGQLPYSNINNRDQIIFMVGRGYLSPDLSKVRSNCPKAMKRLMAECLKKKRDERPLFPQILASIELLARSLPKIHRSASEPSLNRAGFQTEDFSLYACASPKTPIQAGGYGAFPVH

| SMILES | IC50 (B-Raf V600E) | IC50 [1] |
| --- | --- | --- |
| CCN(C)S(=O)(=O)Nc1cccc(C(=O)c2c[nH]c3ncc(-c4cnc(NC5CC5)nc4)cc23)c1F [Compound P-0077, 5-[2-(cyclopropylamino)pyrimidin-5-yl]-3-[3-[[ethyl(methyl)sulfamoyl]amino]-2-fluoro-benzoyl]-1H-pyrrolo[2,3-b]pyridine] | < 0.1 µM | < 1 µM |
| CCCN(C)S(=O)(=O)Nc1ccc(F)c(C(=O)c2c[nH]c3ncc(-c4cnc(C5CC5)nc4)cc23)c1F [Compound P-0078, 5-(2-cyclopropylpyrimidin-5-yl)-3-[2,6-difluoro-3-[[methyl(propyl)sulfamoyl]amino]benzoyl]-1H-pyrrolo[2,3-b]pyridine] | < 0.1 µM | > 1 µM |
| COCCN(C)S(=O)(=O)Nc1cccc(C(=O)c2c[nH]c3ncc(-c4ccc(C5(C#N)CC5)cc4)cc23)c1F [Compound P-0080, 5-[4-(1-cyanocyclopropyl)phenyl]-3-[2-fluoro-3-[[2-methoxyethyl(methyl)sulfamoyl]amino]benzoyl]-1H-pyrrolo[2,3-b]pyridine] | < 0.1 µM | > 1 µM |
| COCCN(C)S(=O)(=O)Nc1cccc(C(=O)c2c[nH]c3ncc(-c4cnc(NC5CC5)nc4)cc23)c1F [Compound P-0081, 5-[2-(cyclopropylamino)pyrimidin-5-yl]-3-[2-fluoro-3-[[2-methoxyethyl(methyl)sulfamoyl]amino]benzoyl]-1H-pyrrolo[2,3-b]pyridine] | < 0.1 µM | < 1 µM |
| CN(CC1CC1)S(=O)(=O)Nc1cccc(C(=O)c2c[nH]c3ncc(-c4cnc(C5CC5)nc4)cc23)c1F [Compound P-0084, 3-[3-[[cyclopropylmethyl(methyl)sulfamoyl]amino]-2-fluoro-benzoyl]-5-(2-cyclopropylpyrimidin-5-yl)-1H-pyrrolo[2,3-b]pyridine] | < 0.1 µM | < 1 µM |
| COCCN(C)S(=O)(=O)Nc1cccc(C(=O)c2c[nH]c3ncc(-c4cnc(C5CC5)nc4)cc23)c1F [Compound P-0085, 5-(2-cyclopropylpyrimidin-5-yl)-3-[2-fluoro-3-[[2-methoxyethyl(methyl)sulfamoyl]amino]benzoyl]-1H-pyrrolo[2,3-b]pyridine] | < 0.1 µM | > 1 µM |
| COc1ncc(-c2cnc3[nH]cc(C(=O)c4cccc(NS(=O)(=O)N5CC(F)(F)C5)c4F)c3c2)cn1 [Compound P-0088, 3,3-difluoro-N-[2-fluoro-3-[5-(2-methoxypyrimidin-5-yl)-1H-pyrrolo[2,3-b]pyridine-3-carbonyl]phenyl]azetidine-1-sulfonamide] | < 0.1 µM | > 1 µM |
| CCN(C)S(=O)(=O)Nc1cccc(C(=O)c2c[nH]c3ncnc(N[C@@H](C)C4CC4)c23)c1F [Compound P-0089, 4-[[(1S)-1-cyclopropylethyl]amino]-5-[3-[[ethyl(methyl)sulfamoyl]amino]-2-fluoro-benzoyl]-7H-pyrrolo[2,3-d]pyrimidine] | < 0.1 µM | > 1 µM |
| N#Cc1ccc(-c2cnc3[nH]cc(C(=O)c4cccc(NS(=O)(=O)N5CCCC5)c4F)c3c2)cc1 [Compound P-0090, N-[3-[5-(4-cyanophenyl)-1H-pyrrolo[2,3-b]pyridine-3-carbonyl]-2-fluoro-phenyl]pyrrolidine-1-sulfonamide] | < 0.1 µM | < 1 µM |
| Cc1ncc(-c2cnc3[nH]cc(C(=O)c4cccc(NS(=O)(=O)N5CCCC5)c4F)c3c2)cn1 [Compound P-0092, N-[2-fluoro-3-[5-(2-methylpyrimidin-5-yl)-1H-pyrrolo[2,3-b]pyridine-3-carbonyl]phenyl]pyrrolidine-1-sulfonamide] | < 0.1 µM | < 1 µM |
| N#Cc1cncc(-c2cnc3[nH]cc(C(=O)c4cccc(NS(=O)(=O)N5CCCC5)c4F)c3c2)c1 [Compound P-0093, N-[3-[5-(5-cyano-3-pyridyl)-1H-pyrrolo[2,3-b]pyridine-3-carbonyl]-2-fluoro-phenyl]pyrrolidine-1-sulfonamide] | < 0.1 µM | < 1 µM |
| N#Cc1ccc(-c2cnc3[nH]cc(C(=O)c4cccc(NS(=O)(=O)N5CCCC5)c4F)c3c2)cn1 [Compound P-0094, N-[3-[5-(6-cyano-3-pyridyl)-1H-pyrrolo[2,3-b]pyridine-3-carbonyl]-2-fluoro-phenyl]pyrrolidine-1-sulfonamide] | < 0.1 µM | < 1 µM |
| O=C(c1cccc(NS(=O)(=O)N2CCCC2)c1F)c1c[nH]c2ncc(-c3ccc(C(F)(F)F)nc3)cc12 [Compound P-0095, N-[2-fluoro-3-[5-[6-(trifluoromethyl)-3-pyridyl]-1H-pyrrolo[2,3-b]pyridine-3-carbonyl]phenyl]pyrrolidine-1-sulfonamide] | < 0.1 µM | < 1 µM |
| Cc1ncc(-c2cnc3[nH]cc(C(=O)c4cccc(NS(=O)(=O)N(C)C)c4F)c3c2)cn1 [Compound P-0097, 3-[3-(dimethylsulfamoylamino)-2-fluoro-benzoyl]-5-(2-methylpyrimidin-5-yl)-1H-pyrrolo[2,3-b]pyridine] | < 0.1 µM | < 1 µM |
| CN(C)S(=O)(=O)Nc1cccc(C(=O)c2c[nH]c3ncc(-c4cncc(C#N)c4)cc23)c1F [Compound P-0098, 5-(5-cyano-3-pyridyl)-3-[3-(dimethylsulfamoylamino)-2-fluoro-benzoyl]-1H-pyrrolo[2,3-b]pyridine] | < 0.1 µM | < 1 µM |
| CN(C)S(=O)(=O)Nc1cccc(C(=O)c2c[nH]c3ncc(-c4ccc(C#N)nc4)cc23)c1F [Compound P-0099, 5-(6-cyano-3-pyridyl)-3-[3-(dimethylsulfamoylamino)-2-fluoro-benzoyl]-1H-pyrrolo[2,3-b]pyridine] | < 0.1 µM | > 1 µM |
| CCN(C)S(=O)(=O)Nc1cccc(C(=O)c2c[nH]c3ncc(-c4cnc(C#N)nc4)cc23)c1F [Compound P-0100, 5-(2-cyanopyrimidin-5-yl)-3-[3-[[ethyl(methyl)sulfamoyl]amino]-2-fluoro-benzoyl]-1H-pyrrolo[2,3-b]pyridine] | < 0.1 µM | > 1 µM |
| CCN(C)S(=O)(=O)Nc1cccc(C(=O)c2c[nH]c3ncc(-c4cncc(C#N)c4)cc23)c1F [Compound P-0101, 5-(5-cyano-3-pyridyl)-3-[3-[[ethyl(methyl)sulfamoyl]amino]-2-fluoro-benzoyl]-1H-pyrrolo[2,3-b]pyridine] | < 0.1 µM | > 1 µM |
| CCN(C)S(=O)(=O)Nc1cccc(C(=O)c2c[nH]c3ncc(-c4ccc(C#N)nc4)cc23)c1F [Compound P-0102, 5-(6-cyano-3-pyridyl)-3-[3-[[ethyl(methyl)sulfamoyl]amino]-2-fluoro-benzoyl]-1H-pyrrolo[2,3-b]pyridine] | < 0.1 µM | > 1 µM |
| CCN(C)S(=O)(=O)Nc1cccc(C(=O)c2c[nH]c3ncc(-c4ccc(C(C)(C)O)cc4)cc23)c1F [Compound P-0104, 3-[3-[[ethyl(methyl)sulfamoyl]amino]-2-fluoro-benzoyl]-5-[4-(1-hydroxy-1-methyl-ethyl)phenyl]-1H-pyrrolo[2,3-b]pyridine] | < 0.1 µM | < 1 µM |
| CN(C)c1ncc(-c2cnc3[nH]cc(C(=O)c4cccc(NS(=O)(=O)N(C)C)c4F)c3c2)cn1 [Compound P-0106, 5-[2-(dimethylamino)pyrimidin-5-yl]-3-[3-(dimethylsulfamoylamino)-2-fluoro-benzoyl]-1H-pyrrolo[2,3-b]pyridine] | < 0.1 µM | < 1 µM |
